Experimental data as given in patent US5792656A (priority 1995, dated 1998).
Where “and” joins values, the source holds several entries; their conditions need not be identical. Identical values can stand only once. Entries after “also recorded” stand apart in the source; their conditions may differ. Like-named read-outs stand apart in the source and are kept apart here.

Assays:
[1] = test system: hexokinase (low Km Hexokinases I, II, and III); settings: cited from earlier work
[2] = test system: CGT-6 (GLUT-2 expressing AtT-20ins) cells; assay: cells
Protocol: Insulin secretion from CGT-6 (GLUT-2,expressing AtT-20ins) cells was evaluated using a column perfusion technique (Knudsen et al., 1983). Cells were grown in liquid culture on microcarrier beads (InvitroGen). Approximately 50×10^6 cells were harvested by gentle centrifugation (500 rpm in a Sorvall RT6000B desk top centrifuge), resuspended in 4ml Krebs-Ringer salt (KRS) solution, pH 7.4, and loaded onto a Pharmacia P10/10 column. A cell count was obtained immediately before loading the column in the following manner. An aliquot of cells was taken, the beads digested with 1.2 U/ml Dispase (Boehringer Mannheim), the cell clumps were dispersed by extrusion through a 25 gauge needle and the cells were counted directly.
After the beads settled in the column, the top plunger of the column was gently inserted and the whole apparatus was submerged in a 37° C. water bath. The cells were then perifused as described below.

[3] = target: T1, rat islet GLUT-2 glucose transporter expressed in AtT-20ins cells (lines CGT-5, CGT-6) (Rattus norvegicus, UniProt P12336)
T1 sequence (P12336 1-522): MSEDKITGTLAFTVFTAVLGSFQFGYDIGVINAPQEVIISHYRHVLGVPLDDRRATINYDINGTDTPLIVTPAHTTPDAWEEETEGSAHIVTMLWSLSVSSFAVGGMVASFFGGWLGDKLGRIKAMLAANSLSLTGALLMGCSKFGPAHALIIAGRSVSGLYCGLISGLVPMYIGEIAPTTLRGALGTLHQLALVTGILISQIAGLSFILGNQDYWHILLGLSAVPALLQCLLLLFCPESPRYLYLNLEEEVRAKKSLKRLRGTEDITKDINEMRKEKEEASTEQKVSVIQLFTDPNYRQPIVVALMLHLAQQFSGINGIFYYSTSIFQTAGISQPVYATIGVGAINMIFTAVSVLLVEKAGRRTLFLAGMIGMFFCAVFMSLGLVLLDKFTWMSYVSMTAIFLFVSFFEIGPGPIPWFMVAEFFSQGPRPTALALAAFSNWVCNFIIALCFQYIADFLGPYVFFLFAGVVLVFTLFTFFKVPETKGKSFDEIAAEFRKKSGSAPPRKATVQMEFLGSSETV

[4] = target: T2, glucokinase, liver isoform (Rattus norvegicus, UniProt P17712); settings: read-out: Km for glucose; cited from earlier work
T2 sequence (P17712 1-465 isoform P17712-3): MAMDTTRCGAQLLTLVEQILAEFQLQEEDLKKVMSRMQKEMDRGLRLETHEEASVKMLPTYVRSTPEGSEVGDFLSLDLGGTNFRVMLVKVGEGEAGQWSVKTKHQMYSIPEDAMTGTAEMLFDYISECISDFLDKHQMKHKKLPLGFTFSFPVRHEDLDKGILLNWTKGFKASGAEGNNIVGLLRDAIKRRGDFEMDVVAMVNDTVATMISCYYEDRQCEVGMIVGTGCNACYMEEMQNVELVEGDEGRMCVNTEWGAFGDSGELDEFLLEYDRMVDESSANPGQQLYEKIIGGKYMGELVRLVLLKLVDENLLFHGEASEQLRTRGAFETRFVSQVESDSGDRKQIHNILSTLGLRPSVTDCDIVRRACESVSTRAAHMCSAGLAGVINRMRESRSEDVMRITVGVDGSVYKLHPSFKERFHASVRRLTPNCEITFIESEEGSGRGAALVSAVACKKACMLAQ

parental AtT-20ins cells = assay: Insulin secretion, static 3 hour incubation, parental cells; format: cell-based; settings: 0-20 mM glucose, 3 hours static incubation
Protocol: (§1) Parental or GLUT-2 transfected lines CGT-5 and CGT-6 were removed from growth plates by light trypsinization and replanted in 6 well dishes (Costar) at a density of 5×10^5 cells per well. The cells were then grown for three days in culture media containing 1 mM (see above). […] Cells were incubated with secretagogues for 3 hours, after which media was collected for insulin radioimmunoassay.

[5] = test system: GLUT-2 transfected AtT-20ins cells (line CGT-6); assay: cells; settings: Mus musculus, 3 h, read-out: maximal stimulation of insulin release relative to 0 mM glucose
Protocol: as §1

[6] = target: T3, glucokinase, islet isoform (Rattus norvegicus, UniProt P17712); settings: read-out: Km for glucose; cited from earlier work
T3 sequence (P17712 1-465): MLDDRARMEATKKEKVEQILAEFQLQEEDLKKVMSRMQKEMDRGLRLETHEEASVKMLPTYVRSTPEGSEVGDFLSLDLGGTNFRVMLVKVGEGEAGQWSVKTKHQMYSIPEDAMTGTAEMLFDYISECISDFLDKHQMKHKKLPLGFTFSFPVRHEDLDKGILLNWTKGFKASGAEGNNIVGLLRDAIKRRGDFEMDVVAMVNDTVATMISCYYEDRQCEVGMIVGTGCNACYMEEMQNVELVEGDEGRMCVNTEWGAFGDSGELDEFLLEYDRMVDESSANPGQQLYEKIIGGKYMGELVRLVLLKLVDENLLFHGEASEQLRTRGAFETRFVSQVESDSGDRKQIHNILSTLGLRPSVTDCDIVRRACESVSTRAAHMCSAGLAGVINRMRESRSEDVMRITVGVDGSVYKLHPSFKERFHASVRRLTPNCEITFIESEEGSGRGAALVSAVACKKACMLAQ

[7] = target: T4, GLUT-1 low Km glucose transporter of untransfected parental AtT-20ins cells (Mus musculus, UniProt P17809); assay: Glucose transport (3-O-methyl glucose uptake) in untransfected parental AtT-20ins cells; format: cell-based; settings: untransfected parental AtT-20ins line
T4 sequence (P17809 1-492): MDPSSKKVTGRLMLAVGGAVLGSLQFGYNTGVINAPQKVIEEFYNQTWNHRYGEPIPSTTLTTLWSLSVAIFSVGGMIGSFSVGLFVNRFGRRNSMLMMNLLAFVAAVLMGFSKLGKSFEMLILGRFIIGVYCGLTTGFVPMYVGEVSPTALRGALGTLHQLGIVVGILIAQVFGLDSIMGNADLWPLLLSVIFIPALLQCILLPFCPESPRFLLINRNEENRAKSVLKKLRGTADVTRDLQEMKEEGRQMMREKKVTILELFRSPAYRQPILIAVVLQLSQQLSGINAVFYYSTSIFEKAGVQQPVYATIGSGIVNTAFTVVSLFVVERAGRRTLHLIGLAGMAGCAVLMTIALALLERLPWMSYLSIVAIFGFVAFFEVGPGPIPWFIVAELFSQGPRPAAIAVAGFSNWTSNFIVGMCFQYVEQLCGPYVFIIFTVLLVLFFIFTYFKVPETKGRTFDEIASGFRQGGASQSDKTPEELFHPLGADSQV

[8] = target: T5, glucokinase (Hexokinase IV) (Homo sapiens, UniProt P35557); settings: read-out: Km for glucose; cited from earlier work
T5 sequence (P35557 1-465): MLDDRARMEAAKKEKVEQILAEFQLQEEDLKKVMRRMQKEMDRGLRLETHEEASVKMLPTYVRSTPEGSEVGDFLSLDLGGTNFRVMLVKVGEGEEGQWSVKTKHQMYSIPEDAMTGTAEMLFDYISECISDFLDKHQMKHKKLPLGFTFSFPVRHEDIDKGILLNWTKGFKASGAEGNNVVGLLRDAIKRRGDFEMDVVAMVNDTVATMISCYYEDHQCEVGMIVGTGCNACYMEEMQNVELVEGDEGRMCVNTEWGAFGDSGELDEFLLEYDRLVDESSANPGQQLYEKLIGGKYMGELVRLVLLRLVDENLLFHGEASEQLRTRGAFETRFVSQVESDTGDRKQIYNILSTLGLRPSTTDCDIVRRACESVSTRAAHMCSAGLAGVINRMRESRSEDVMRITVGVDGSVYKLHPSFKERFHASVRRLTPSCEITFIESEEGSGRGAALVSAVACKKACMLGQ

[9] = target: T6, high Km glucose transport activity (GLUT-2) of isolated, dispersed islets of Langerhans (Rattus norvegicus, UniProt P12336); settings: cited from earlier work
T6 construct: host or cells: isolated, dispersed islets of Langerhans (Johnson et al., 1990a)
T6 sequence (P12336 1-522): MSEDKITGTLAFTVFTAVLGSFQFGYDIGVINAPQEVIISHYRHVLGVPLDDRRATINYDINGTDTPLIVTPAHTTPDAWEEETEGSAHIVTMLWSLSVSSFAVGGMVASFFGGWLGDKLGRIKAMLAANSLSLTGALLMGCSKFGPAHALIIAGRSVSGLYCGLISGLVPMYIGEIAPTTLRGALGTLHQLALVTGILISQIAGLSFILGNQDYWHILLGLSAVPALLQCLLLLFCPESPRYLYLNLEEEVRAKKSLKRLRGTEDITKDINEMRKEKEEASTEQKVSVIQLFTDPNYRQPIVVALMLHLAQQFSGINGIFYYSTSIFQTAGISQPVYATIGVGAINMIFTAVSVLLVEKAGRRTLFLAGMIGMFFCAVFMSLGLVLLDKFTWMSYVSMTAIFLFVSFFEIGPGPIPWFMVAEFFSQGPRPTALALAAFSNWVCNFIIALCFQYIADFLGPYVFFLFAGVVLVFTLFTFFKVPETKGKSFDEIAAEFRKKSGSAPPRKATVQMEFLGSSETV

RIN 1046-38 cells = RIN 1046-38 cells (Clark, et al., 1990); cited from earlier work
[10] = substrate: OC[C@H]1OC(O)[C@H](O)[C@@H](O)[C@@H]1O; assay: cells, lysate or membranes; settings: 3-O-methyl glucose uptake, 37.0 °C
[11] = lines CGT-5, CGT-6 stated together, 3-O-methyl glucose uptake

O=P(O)(O)OC[C@H]1OC(O)[C@H](O)[C@@H](O)[C@@H]1O (some centres unmarked) [glucose-6-phosphate, reference compound]
inhibition of hexokinase by glucose-6-phosphate ([1]; 10 mM glucose-6-phosphate): potently inhibits; also recorded: potent inhibitor

OC[C@H]1OC(O)[C@H](O)[C@@H](O)[C@@H]1O (some centres unmarked) [glucose]
fold induction at 5000 µM ([2]; 5 min, read-out: insulin secretion second plateau above pre-glucose level): 3 | fold induction at 5000 µM ([2]; read-out: increase in insulin release, first phase, over baseline without glucose): 10 | Vmax ([3]; line CGT-5, Lineweaver-Burke analysis): 25 mmoles/min/liter cell space | Vmax ([3]; line CGT-6, Lineweaver-Burke analysis): 17 mmoles/min/liter cell space | Vmax [3, 11]: 19 mmoles/min/liter cell space | estimated Km for glucose [3, 11]: 18 mM | Km [4]: 8 to 10 mM | effect of glucose on insulin release (parental AtT-20ins cells): no significant effect | maximal fold induction [5]: ~2.5 | Km [6]: 8 to 10 mM and ~10 mM | Vmax [7]: 0.5 mmoles/min/liter cell space | Km [8]: ~8 mM and 8 to 10 mM | Vmax ([9]; dispersed islets (Johnson, et al., 1990a)): 24 mmoles/min/liter cell space | Km ([9]; read-out: Km for glucose, dispersed islets (Johnson, et al., 1990a)): 18 mM | glucose concentration at which stimulation of insulin release is maximal (RIN 1046-38 cells): 0.5 mM | Km ([1]; read-out: Km for glucose, Hexokinases I, II, and III): ~0.05 mM

B1: GLUT-1 low Km glucose transporter of untransfected parental AtT-20ins cells (Mus musculus) (protein)
chain: MDPSSKKVTGRLMLAVGGAVLGSLQFGYNTGVINAPQKVIEEFYNQTWNHRYGEPIPSTTLTTLWSLSVAIFSVGGMIGSFSVGLFVNRFGRRNSMLMMNLLAFVAAVLMGFSKLGKSFEMLILGRFIIGVYCGLTTGFVPMYVGEVSPTALRGALGTLHQLGIVVGILIAQVFGLDSIMGNADLWPLLLSVIFIPALLQCILLPFCPESPRFLLINRNEENRAKSVLKKLRGTADVTRDLQEMKEEGRQMMREKKVTILELFRSPAYRQPILIAVVLQLSQQLSGINAVFYYSTSIFEKAGVQQPVYATIGSGIVNTAFTVVSLFVVERAGRRTLHLIGLAGMAGCAVLMTIALALLERLPWMSYLSIVAIFGFVAFFEVGPGPIPWFIVAELFSQGPRPAAIAVAGFSNWTSNFIVGMCFQYVEQLCGPYVFIIFTVLLVLFFIFTYFKVPETKGRTFDEIASGFRQGGASQSDKTPEELFHPLGADSQV
Km ([10]; other: untransfected parental AtT-20ins line): 2 mM

B2: rat islet GLUT-2 glucose transporter expressed in AtT-20ins cells (lines CGT-5, CGT-6) (Rattus norvegicus) (protein)
chain: MSEDKITGTLAFTVFTAVLGSFQFGYDIGVINAPQEVIISHYRHVLGVPLDDRRATINYDINGTDTPLIVTPAHTTPDAWEEETEGSAHIVTMLWSLSVSSFAVGGMVASFFGGWLGDKLGRIKAMLAANSLSLTGALLMGCSKFGPAHALIIAGRSVSGLYCGLISGLVPMYIGEIAPTTLRGALGTLHQLALVTGILISQIAGLSFILGNQDYWHILLGLSAVPALLQCLLLLFCPESPRYLYLNLEEEVRAKKSLKRLRGTEDITKDINEMRKEKEEASTEQKVSVIQLFTDPNYRQPIVVALMLHLAQQFSGINGIFYYSTSIFQTAGISQPVYATIGVGAINMIFTAVSVLLVEKAGRRTLFLAGMIGMFFCAVFMSLGLVLLDKFTWMSYVSMTAIFLFVSFFEIGPGPIPWFMVAEFFSQGPRPTALALAAFSNWVCNFIIALCFQYIADFLGPYVFFLFAGVVLVFTLFTFFKVPETKGKSFDEIAAEFRKKSGSAPPRKATVQMEFLGSSETV
Km ([10]; other: line CGT-5, Lineweaver-Burke analysis): 16 mM | Km ([10]; other: line CGT-6, Lineweaver-Burke analysis): 17 mM
